From article PMC5187951 (International Journal of Molecular Sciences, 2016)

What was measured:
[1] = system: carrageenan induced paw edema in mice; experiment: Carrageenan induced paw edema in mice; assay type: in vivo; settings: 20 mg/kg p.o.; for Inflammation at 1 h (paw thickness), Mean ± SEM / Percent inhibition of paw edema at 1 h: 1 h after carrageenan; for Percent inhibition of paw edema at 1 h / Percent inhibition of paw edema at 2 h / Percent inhibition of paw edema at 3 h / Percent inhibition of paw edema at 4 h: vs control; for Inflammation at 2 h (paw thickness), Mean ± SEM / Percent inhibition of paw edema at 2 h: 2 h after carrageenan; for Inflammation at 3 h (paw thickness), Mean ± SEM / Percent inhibition of paw edema at 3 h: 3 h after carrageenan; for Inflammation at 4 h (paw thickness), Mean ± SEM / Percent inhibition of paw edema at 4 h: 4 h after carrageenan
Procedure: Anti-inflammatory activity of mutual prodrugs 5a–c was determined by following the already reported method by slight modification against carrageenan induced paw edema in mice. The animals were distributed into 5 groups each having five mice. The mice used for the experiment were kept on fasting for 24 h before the starting of experiment. […] The paw volume was measured at 0, 1, 2, 3 and 4 h after the administration of carrageenan by using vernier caliper. (1) Percent inhibition (%) = 100 (1−X/Y) where X = mean increase in paw thickness of treated mice; and Y = mean increase in paw thickness of control mice.

[2] = system: egg albumin induced paw edema in mice; experiment: Egg albumin induced inflammation (paw edema) in mice; assay type: in vivo; settings: 20 mg/kg p.o.
Procedure: Anti-inflammatory potential of synthesized prodrugs 5a–c against egg albumin induced inflammation was also determined for further verification by following the previously reported method. The animals were divided into five groups, each group having five animals. The animals were kept on fasting for 24 h before the beginning of the experiment.

[3] = system: acetic acid induced writhing in mice; experiment: Acetic acid induced writhing in mice; assay type: in vivo; settings: 20 mg/kg p.o.; for No. of Writhing, Mean ± SEM: 0.6% acetic acid, counted up to 15 min; for Percentage inhibition of writhing: vs control
Procedure: Koster et al., reported method was adopted for the determination of analgesic activity of the mutual prodrugs 5a–c. The mice were divided in to five groups each group consists of five animals. […] For induction of writhings, acetic acid solution (0.6% in normal saline) was given to every mouse post 30 min of treatment. After 5 min of injection of this solution, the number of writhings was counted up to 15 min.

[4] = system: formalin induced licking in mice; experiment: Formalin induced licking in mice; assay type: in vivo; settings: 20 mg/kg p.o.; for Lickings Time, Mean ± SEM: formalin 2.5%, observed 30 min; for Percentage inhibition of licking time: vs control
Source text: Formalin induced licking in mice was also used to determine analgesic activity of prodrugs 5a–c for further verification. The animals were distributed in to five groups having five mice in each group.

[5] = system: yeast induced pyrexia in mice; experiment: Yeast induced pyrexia in mice; assay type: in vivo; settings: for Temperature 1 h, Mean ± SEM / Temperature 2 h, Mean ± SEM / Temperature 3 h, Mean ± SEM: 20 mg/kg p.o.; for Temperature 1 h, Mean ± SEM: 1 h after drug administration; for Temperature 2 h, Mean ± SEM: 2 h after drug administration; for Temperature 3 h, Mean ± SEM: 3 h after drug administration; for Temperature After 24 h of Induction, Mean ± SEM: rectal temperature after yeast, before drug; for Temperature before Induction, Mean ± SEM: rectal temperature, baseline before yeast
Procedure: Antipyretic activity of prodrugs 5a–c was evaluated against yeast induced pyrexia in mice according to Sakande et al., reported method. Aqueous suspension of brewer′s yeast (20% in distilled water) […] was given subcutaneous to mice. […] Only, those animals were further used in which the pyrexia had been induced. The animals were divided in to five groups having five mice in each group. […] Then animals were treated as described earlier with control, standard and prodrugs 5a–c. Rectal temperature of animals was recorded at 1, 2, 3 and 4 h after drug administration.

[6] = system: gastrointestinal mucosa (stomach); experiment: Ulcerogenic studies, fasted rat model; assay type: in vivo; settings: 20 mg/kg p.o., 4 h after dose, UI = area of ulcer/area of stomach × 100
Procedure: The animals were categorized into 6 groups, each has 5 animals. Group 1 was control and given 0.5% carboxymethyl cellulose (CMC) suspension. […] The prodrugs 5a–c (20 mg/kg p.o.) were given to Groups III–V, respectively. Food and water was removed from animal cages 24 h before starting the experiments. After 4 h administration of dose, the animal′s stomach was removed by sacrificing the animal. Stomach was kept on saline soaked filter paper for inspection. The stomach was opened along larger curvature and cleaned with distilled water. The mucous was removed and the area of ulcers and stomachs were noted.
Following formula was used for calculation of Ulcer index (UI); (2) UI=Area of Ulcer/Area of Stomach×100

[7] = system: platelet aggregation of rat platelet rich plasma induced by ADP or collagen; experiment: Ex vivo antiplatelet aggregation activity; assay type: in vivo, Sprague-Dawley (SD) rats; settings: 100 mg/kg orally, blood 90 min after dosing, ADP 1.3 µmol/L or collagen 32.8 µg/mL; ASA 50 mg/kg positive control
Procedure: The antiplatelet activity of synthesized mutual prodrugs 5a–c was investigated by following the already reported method with some modifications. Male Sprague-Dawley (SD) rats weighing 320–350 g were used after overnight fasting. Rats were orally administered via gastric tube 100 mg/kg of prodrugs solution or 50 mg/kg of acetyl salicylic acid (ASA) suspended in 0.5% carboxymethyl cellulose (CMC) solution. Blood was collected 90 min after sample administration and platelet-rich plasma (PRP) was prepared by centrifugation of blood at 120× g for 15 min and further centrifuged at 850× g for 15 min to prepare platelet-poor plasma (PPP). Platelet aggregation was induced by 32.8 µg/mL of collagen or 1.3 µmol/L of adenosine diphosphate (ADP) in 300 µL of PRP. The PRP (300 µL) was incubated at 37 °C for 2 min in the aggregometer with stirring at 1000 rpm and then stimulated with ADP, collagen, epinephrine and A23187. The changes in light transmission were recorded for 5 min after stimulation. The synthesized mutual prodrugs 5a–c were added to the platelet suspension 3 min before the addition of the aggregating agents. The extent of inhibition of platelet aggregation is expressed as percent inhibition (X) using the following formula: (3) X=((A−B)/A)×100 where A = maximal aggregation of the control; and B = maximal aggregation of sample-treated PRP.

Structure (SMILES): CC(C)Cc1ccc([C@H](C)C(=O)OCC(=O)Oc2ccc3ccc(=O)oc3c2)cc1 [5c, (S)-((2-oxo-2H-chromen-7-yloxy)carbonyl) methyl 2-(4-isobutylphenyl) propanoate]
- Inflammation at 0 h (paw thickness), Mean ± SEM ([1]; 0 h after carrageenan): 4.32 ± 0.04 mm
- Inflammation at 1 h (paw thickness), Mean ± SEM [1]: 4.22 ± 0.04 mm
- Percent inhibition of paw edema at 1 h [1]: 4.09%
- Inflammation at 2 h (paw thickness), Mean ± SEM [1]: 4.05 ± 0.02 mm
- Percent inhibition of paw edema at 2 h [1]: 12.14%
- Inflammation at 3 h (paw thickness), Mean ± SEM [1]: 3.80 ± 0.04 mm
- Percent inhibition of paw edema at 3 h [1]: 21.64%
- Inflammation at 4 h (paw thickness), Mean ± SEM [1]: 3.60 ± 0.04 mm
- Percent inhibition of paw edema at 4 h [1]: 28.99%
- Inflammation at 0 h (paw thickness), Mean ± SEM ([2]; 0 h after egg albumin): 4.60 ± 0.33 mm
- Inflammation at 1 h (paw thickness), Mean ± SEM ([2]; 1 h after egg albumin): 3.12 ± 0.06 mm
- Percent inhibition of paw edema at 1 h ([2]; 1 h after egg albumin, vs control): 29.09%
- Inflammation at 2 h (paw thickness), Mean ± SEM ([2]; 2 h after egg albumin): 3.02 ± 0.06 mm
- Percent inhibition of paw edema at 2 h ([2]; 2 h after egg albumin, vs control): 37.08%
- Inflammation at 3 h (paw thickness), Mean ± SEM ([2]; 3 h after egg albumin): 2.92 ± 0.07 mm
- Percent inhibition of paw edema at 3 h ([2]; 3 h after egg albumin, vs control): 44.06%
- No. of Writhing, Mean ± SEM [3]: 18.25 ± 0.85
- Percentage inhibition of writhing [3]: 50.94%
- Lickings Time, Mean ± SEM [4]: 1.31 ± 0.07
- Percentage inhibition of licking time [4]: 53.71%
- Temperature 1 h, Mean ± SEM [5]: 98.35 ± 0.05 °F
- Temperature 2 h, Mean ± SEM [5]: 97.65 ± 0.15 °F
- Temperature 3 h, Mean ± SEM [5]: 97.25 ± 0.08 ^ns °F
- Temperature After 24 h of Induction, Mean ± SEM [5]: 102.1 ± 0.96 °F
- Temperature before Induction, Mean ± SEM [5]: 98.95 ± 0.04 °F
- Ulcer Index (Mean±SEM) [6]: 1.61 ± 0.58
- Inhibition of platelet aggregation [7]: most potent inhibitory effects

Structure (SMILES): CC(C)Cc1ccc([C@H](C)C(=O)O)cc1 [Dexibuprofen, S-(+)-ibuprofen, reference compound]
- Inflammation at 1 h (paw thickness), Mean ± SEM [1]: 4.35 ± 0.06 mm
- Percent inhibition of paw edema at 1 h [1]: 1.1%
- Inflammation at 2 h (paw thickness), Mean ± SEM [1]: 4.07 ± 0.02 mm
- Percent inhibition of paw edema at 2 h [1]: 11.71%
- Inflammation at 3 h (paw thickness), Mean ± SEM [1]: 3.90 ± 0.04 mm
- Percent inhibition of paw edema at 3 h [1]: 19.58%
- Inflammation at 4 h (paw thickness), Mean ± SEM [1]: 3.75 ± 0.06 mm
- Percent inhibition of paw edema at 4 h [1]: 26.03%
- No. of Writhing, Mean ± SEM [3]: 17.06 ± 1.08
- Percentage inhibition of writhing [3]: 54.12%
- Lickings Time, Mean ± SEM [4]: 1.60 ± 0.22
- Percentage inhibition of licking time [4]: 43.46%
- Temperature 1 h, Mean ± SEM [5]: 95.25 ± 0.37 ^ns °F
- Temperature 2 h, Mean ± SEM [5]: 95.02 ± 0.35 °F
- Temperature 3 h, Mean ± SEM [5]: 94.97 ± 0.31 °F
- Temperature After 24 h of Induction, Mean ± SEM [5]: 95.77 ± 0.26 °F
- Temperature before Induction, Mean ± SEM [5]: 95.20 ± 0.21 °F
